The assay addresses T1, rat B1R (bradykinin receptor 1) (Rattus norvegicus, UniProt P97583).
T1 construct: expressed in transfected cells; host or cells: CHO K1 cells
T1 sequence (P97583 1-337): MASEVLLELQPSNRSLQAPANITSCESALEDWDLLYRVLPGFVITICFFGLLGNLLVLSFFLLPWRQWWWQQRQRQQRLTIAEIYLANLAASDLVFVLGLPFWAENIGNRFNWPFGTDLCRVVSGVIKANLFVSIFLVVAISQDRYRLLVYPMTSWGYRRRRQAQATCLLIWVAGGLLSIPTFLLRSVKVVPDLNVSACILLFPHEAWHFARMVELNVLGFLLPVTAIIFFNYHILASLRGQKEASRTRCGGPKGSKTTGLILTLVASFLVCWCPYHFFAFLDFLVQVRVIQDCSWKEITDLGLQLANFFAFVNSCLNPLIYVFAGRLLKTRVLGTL
Kind of assay: FLIPR Ca2+ assay (Fluo-4) on CHO K1 cells stably transfected with the B1R gene of the rat (rB1R cells): % inhibition at 10 μM / IC50, agonist Des-Arg9-bradykinin. The class given is cell-based. Particulars: for inhibition at 10 µM: CHO-K1, rat B1R. In a few lines: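 Loading with Fluo-4 occurs for 60 min at 37 °C, or alternatively in buffer A, before FLIPR measurement. Compounds are applied, incubated 10–20 min, and then the EC80 agonist is added. Antagonism appears as reduced peak Ca2+ signal relative to maximal inhibition.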

By inhibition is commonly meant the relative decrease from the control value, in per cent. As for `O=C(NC1CCc2ccc(C(=O)N3CCC4(CC3)CCN(c3ccncc3)CC4)cc21)C1CCCCC1` (centres unmarked) [IND_CC-364, N-[6-(9-Pyridin-4-yl-3,9-diazaspiro[5.5]undecane-3-carbonyl)-2,3-dihydro-1H-inden-1-yl]-cyclohexanecarboxylic acid amide], the inhibition at 10 µM amounted to 103%.

`N#Cc1ccc(CN2CCC3(CC2)CCN(C(=O)c2ccc4c(c2)C(NC(=O)c2cc(C(F)(F)F)ccc2Cl)CC4)C3)cc1` (centres unmarked) [IND_CC-658, 2-Chloro-N-[6-[8-[(4-cyano-phenyl)-methyl]-2,8-diazaspiro[4.5]decane-2-carbonyl]-2,3-dihydro-1H-inden-1-yl]-5-(trifluoromethyl)-benzamide]: the inhibition at 10 µM came to 51%.

For `Cc1cc(F)cc(C)c1S(=O)(=O)NC1CCc2ccc(C(=O)N3CCC4(CC3)CCN(c3ccncc3)C4)cc21` (centres unmarked) [IND_CC-356, 4-Fluoro-2,6-dimethyl-N-[6-(2-pyridin-4-yl-2,8-diazaspiro[4.5]decane-8-carbonyl)-2,3-dihydro-1H-inden-1-yl]-benzenesulfonic acid amide], the inhibition at 10 µM was found to be 69%.

On to `CCn1cc(CN2CCC3(CC2)CCN(C(=O)c2ccc4c(c2)C(NC(=O)c2cc(C(F)(F)F)ccc2Cl)CC4)CC3)c(C)n1` (centres unmarked) [IND_CC-693, 2-Chloro-N-[6-[9-[(1-ethyl-3-methyl-1H-pyrazol-4-yl)-methyl]-3,9-diazaspiro[5.5]-undecane-3-carbonyl]-2,3-dihydro-1H-inden-1-yl]-5-(trifluoromethyl)-benzamide], for which the inhibition at 10 µM was determined as 68%.

For the compound `O=C(NC1CCc2ccc(C(=O)N3CCC4(CCN(Cc5ccc(F)c(F)c5)CC4)CC3)cc21)c1cc(C(F)(F)F)ccc1Cl` (centres unmarked) [IND_CC-645, 2-Chloro-N-[6-[9-[(3,4-difluoro-phenyl)-methyl]-3,9-diazaspiro[5.5]undecane-3-carbonyl]-2,3-dihydro-1H-inden-1-yl]-5-(trifluoromethyl)-benzamide], the inhibition at 10 µM was 78%.

Consider `Cn1cccc1CN1CCC2(CC1)CCN(C(=O)c1ccc3c(c1)C(N(C(=O)c1ccccc1Cl)C1CC1)CC3)C2` (centres unmarked) [IND_CC-519, 2-Chloro-N-cyclopropyl-N-[6-[8-[(1-methyl-1H-pyrrol-2-yl)-methyl]-2,8-diazaspiro[4.5]decane-2-carbonyl]-2,3-dihydro-1H-inden-1-yl]-benzamide], for which the inhibition at 10 µM was found to be 53%.

For the compound `O=C(NC1CCc2ccc(C(=O)N3CCC4(CC3)CCN(C(=O)c3ccc(F)cc3F)CC4)cc21)c1ccccc1Cl` (centres unmarked) [IND_CC-600, 2-Chloro-N-[6-[9-(2,4-difluoro-benzoyl)-3,9-diazaspiro[5.5]undecane-3-carbonyl]-2,3-dihydro-1H-inden-1-yl]-benzamide], the inhibition at 10 µM was found to be 100%.

Regarding `Cc1noc(C)c1CN1CCC2(CC1)CCN(C(=O)c1ccc3c(c1)C(NC(=O)c1c(F)cccc1Cl)CC3)C2` (centres unmarked) [IND_CC-738, 2-Chloro-N-[6-[8-[(3,5-dimethyl-isoxazol-4-yl)-methyl]-2,8-diazaspiro-[4.5]decane-2-carbonyl]-2,3-dihydro-1H-inden-1-yl]-6-fluoro-benzamide], the inhibition at 10 µM was 89%.

In the case of `O=C(NC1CCc2ccc(C(=O)N3CCC4(CC3)CCN(c3ccc(C(F)(F)F)cc3)CC4)cc21)c1cc(F)ccc1Cl` (centres unmarked) [IND_CC-222, 2-Chloro-5-fluoro-N-[6-[9-[4-(trifluoromethyl)-phenyl]-3,9-diazaspiro[5.5]undecane-3-carbonyl]-2,3-dihydro-1H-inden-1-yl]-benzamide], the inhibition at 10 µM came out at 60%.

As for `CN(C1CCc2ccc(C(=O)N3CCC4(CC3)CCN(c3ccncc3)CC4)cc21)S(=O)(=O)c1cc(Cl)c(Cl)cc1Cl` (centres unmarked) [IND_CC-362, 2,4,5-Trichloro-N-methyl-N-[6-(9-pyridin-4-yl-3,9-diazaspiro[5.5]undecane-3-carbonyl)-2,3-dihydro-1H-inden-1-yl]-benzenesulfonic acid amide], the inhibition at 10 µM came out at 81%.

For `O=C(NC1CCc2ccc(C(=O)N3CCC4(CCN(CCc5ccccc5)CC4)C3)cc21)c1c(F)cccc1Cl` (centres unmarked) [IND_CC-780, 2-Chloro-6-fluoro-N-[6-(8-phenethyl-2,8-diazaspiro[4.5]decane-2-carbonyl)-2,3-dihydro-1H-inden-1-yl]-benzamide], the inhibition at 10 µM is 101%.

In the case of `O=C(NC1CCc2ccc(C(=O)N3CCC4(CC3)CCN(c3ccncc3)CC4)cc21)c1ccc(F)cc1C(F)(F)F` (centres unmarked) [IND_CC-379, 4-Fluoro-N-[6-(9-pyridin-4-yl-3,9-diazaspiro[5.5]undecane-3-carbonyl)-2,3-dihydro-1H-inden-1-yl]-2-(trifluoromethyl)-benzamide], the inhibition at 10 µM is 103%.

`Cc1cccc(Cl)c1C(=O)NC1CCc2ccc(C(=O)N3CCC4(CCN(Cc5c(C)noc5C)CC4)C3)cc21` (centres unmarked) [IND_CC-730, 2-Chloro-N-[6-[8-[(3,5-dimethyl-isoxazol-4-yl)-methyl]-2,8-diazaspiro-[4.5]decane-2-carbonyl]-2,3-dihydro-1H-inden-1-yl]-6-methyl-benzamide]: the inhibition at 10 µM was 75%.

As for `O=C(NC1CCc2ccc(C(=O)N3CCC4(CCN(c5ccncc5)CC4)C3)cc21)c1c(F)cccc1C(F)(F)F` (centres unmarked) [IND_CC-378, 2-Fluoro-N-[6-(8-pyridin-4-yl-2,8-diazaspiro[4.5]decane-2-carbonyl)-2,3-dihydro-1H-inden-1-yl]-6-(trifluoromethyl)-benzamide], the inhibition at 10 µM was 104%.

Take “5-Chloro-2-fluoro-N-[6-[8-[3-(3-fluorophenyl)-propyl]-2,8-diazaspiro[4.5]decane-2-carbonyl]-2,3-dihydro-1H-inden-1-yl]-benzamide [IND_CC-674]”: the “% Inhibition (rat B1R) at 10 μM” value (rat B1R) is recorded as 67%.

Turning to `CN(C)c1ncc(CN2CCC3(CC2)CCN(C(=O)c2ccc4c(c2)C(NC(=O)c2cccc(Cl)c2Cl)CC4)C3)cn1` (centres unmarked) [IND_CC-743, 2,3-Dichloro-N-[6-[8-[(2-dimethylamino-pyrimidin-5-yl)-methyl]-2,8-diazaspiro[4.5]decane-2-carbonyl]-2,3-dihydro-1H-inden-1-yl]-benzamide], the inhibition at 10 µM is 80%.

For the compound `CCC(CC)CN1CCC2(CC1)CCN(C(=O)c1ccc3c(c1)C(NC(=O)c1cc(C(F)(F)F)ccc1Cl)CC3)C2` (centres unmarked) [IND_CC-688, 2-Chloro-N-[6-[8-(2-ethyl-butyl)-2,8-diazaspiro[4.5]decane-2-carbonyl]-2,3-dihydro-1H-inden-1-yl]-5-(trifluoromethyl)-benzamide], the inhibition at 10 µM is 88%.

`COc1cc(C)c(C(=O)NC2CCc3ccc(C(=O)N4CCC5(CCN(c6ccncc6)CC5)C4)cc32)c(C)c1` (centres unmarked) [Ind_CC-088, 4-methoxy-2,6-dimethyl-N-[6-(8-pyridin-4-yl-2,8-diazaspiro[4.5]decane-2-carbonyl)-2,3-dihydro-1H-inden-1-yl]-benzamide]: the inhibition at 10 µM was found to be 93%.

Turning to `N#Cc1ccccc1S(=O)(=O)N1CCC2(CCN(C(=O)c3ccc4c(c3)C(NC(=O)c3ccccc3Cl)CC4)CC2)CC1` (centres unmarked) [IND_CC-611, 2-Chloro-N-[6-[9-[(2-cyano-phenyl)sulfonyl]-3,9-diazaspiro[5.5]undecane-3-carbonyl]-2,3-dihydro-1H-inden-1-yl]-benzamide], the inhibition at 10 µM was 98%.

For the compound `O=C(NC1CCc2ccc(C(=O)N3CCC4(CCN(C(=O)C5CC5)CC4)C3)cc21)c1sccc1Cl` (centres unmarked) [IND_CC-582, 3-Chloro-N-[6-[8-(cyclopropanecarbonyl)-2,8-diazaspiro[4.5]decane-2-carbonyl]-2,3-dihydro-1H-inden-1-yl]-thiophene-2-carboxylic acid amide], the inhibition at 10 µM was found to be 58%.

For the origin of these results see patent publication US8455475B2 (Gruenenthal GmbH, priority 2009, dated 2013).
